In US11370798B2 (Vertex Pharmaceuticals Incorporated, priority 2012, dated 2022):

test system: HCT116 colorectal cancer cells; experiment: Cisplatin sensitization assay (96 h cell viability MTS); assay type: cell-based; details: compound and Cisplatin added simultaneously, Cisplatin sensitization value;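 further: Test-compound concentration that lowers the Cisplatin IC50 by a set fold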
Procedure, shortened: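 Compound and cisplatin added together as a full matrix of 2-fold serial dilutions from a top final concentration of 10 μM; cells incubated 96 h at 37° C, 5% CO2. Viability then read by MTS after 1 h further incubation; sensitization value reported in μM bins.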

| SMILES | Cisplatin Sensitization Assay |
| --- | --- |
| Nc1nn2cc(Cl)cnc2c1C(=O)Nc1cnccc1N1CCC(N2CCCC2)CC1 [I-N-105, 2-amino-6-chloro-N-(4-(4-(pyrrolidin-1-yl)piperidin-1-yl)pyridin-3-yl)pyrazolo[1,5-a]pyrimidine-3-carboxamide] | +++ (Cisplatin sensitization value of <0.02 μM) |
| CN(C)C1CCN(C2CCN(c3ccncc3NC(=O)c3c(N)nn4cc(Cl)cnc34)CC2)C1 (stereo not drawn) [I-N-106, 2-amino-6-chloro-N-(4-(4-(3-(dimethylamino)pyrrolidin-1-yl)piperidin-1-yl)pyridin-3-yl)pyrazolo[1,5-a]pyrimidine-3-carboxamide] | +++ (Cisplatin sensitization value of <0.02 μM) |
| COC1CN(C2CCN(c3ccncc3NC(=O)c3c(N)nn4cc(Cl)cnc34)CC2)C1 [I-N-107, 2-amino-6-chloro-N-(4-(4-(3-methoxyazetidin-1-yl)piperidin-1-yl)pyridin-3-yl)pyrazolo[1,5-a]pyrimidine-3-carboxamide] | +++ (Cisplatin sensitization value of <0.02 μM) |
| Nc1nn2cc(Cl)cnc2c1C(=O)Nc1cnccc1N1CCC(N2CC(F)(F)C2)CC1 [I-N-108, 2-amino-6-chloro-N-(4-(4-(3,3-difluoroazetidin-1-yl)piperidin-1-yl)pyridin-3-yl)pyrazolo[1,5-a]pyrimidine-3-carboxamide] | +++ (Cisplatin sensitization value of <0.02 μM) |
| Nc1nn2cc(Cl)cnc2c1C(=O)Nc1cnccc1N1CCC(N2CCC23COC3)CC1 [I-N-109, N-(4-(4-(6-oxa-1-azaspiro[3.3]heptan-1-yl)piperidin-1-yl)pyridin-3-yl)-2-amino-6-chloropyrazolo[1,5-a]pyrimidine-3-carboxamide] | +++ (Cisplatin sensitization value of <0.02 μM) |
| CN1CCN(c2c(NC(=O)c3c(N)nn4cc(F)cnc34)cncc2C(F)F)CC1 [I-N-111, 2-amino-N-(5-(difluoromethyl)-4-(4-methylpiperazin-1-yl)pyridin-3-yl)-6-fluoropyrazolo[1,5-a]pyrimidine-3-carboxamide] | ++ (Cisplatin sensitization value>0.02 μM but <0.2 μM) |
| Nc1nn2cc(F)cnc2c1C(=O)Nc1cnccc1N1CCN(C2COC2)C2CC21 (stereo not drawn) [I-N-112, 2-amino-6-fluoro-N-(4-(5-(oxetan-3-yl)-2,5-diazabicyclo[4.1.0]heptan-2-yl)pyridin-3-yl)pyrazolo[1,5-a]pyrimidine-3-carboxamide] | + (Cisplatin sensitization value>0.2 μM but <5 μM) |
| CN1CCN(c2c(C#N)cncc2NC(=O)c2c(N)nn3cc(F)cnc23)CC1 [I-N-113, 2-amino-N-(5-cyano-4-(4-methylpiperazin-1-yl)pyridin-3-yl)-6-fluoropyrazolo[1,5-a]pyrimidine-3-carboxamide] | + (Cisplatin sensitization value>0.2 μM but <5 μM) |
| Nc1nn2cc(F)cnc2c1C(=O)Nc1cnccc1N1CCN2CCOC[C@@H]2C1 [I-N-115, (S)-2-amino-6-fluoro-N-(4-(hexahydropyrazino[2,1-c][1,4]oxazin-8(1H)-yl)pyridin-3-yl)pyrazolo[1,5-a]pyrimidine-3-carboxamide] | +++ (Cisplatin sensitization value of <0.02 μM) |
| Nc1nn2cc(F)cnc2c1C(=O)Nc1cnccc1N1CCN2CCOC[C@H]2C1 [I-N-116, (R)-2-amino-6-fluoro-N-(4-(hexahydropyrazino[2,1-c][1,4]oxazin-8(1H)-yl)pyridin-3-yl)pyrazolo[1,5-a]pyrimidine-3-carboxamide] | ++ (Cisplatin sensitization value>0.02 μM but <0.2 μM) |
| Nc1nn2cc(Cl)cnc2c1C(=O)Nc1cncc(F)c1N1CCN(C2COC2)CC1 [I-N-117, 2-amino-6-chloro-N-(5-fluoro-4-(4-(oxetan-3-yl)piperazin-1-yl)pyridin-3-yl)pyrazolo[1,5-a]pyrimidine-3-carboxamide] | +++ (Cisplatin sensitization value of <0.02 μM) |
| Nc1nn2cc(F)cnc2c1C(=O)Nc1cncc(F)c1N1CCNCC1 [I-N-118, 2-amino-6-fluoro-N-(5-fluoro-4-(piperazin-1-yl)pyridin-3-yl)pyrazolo[1,5-a]pyrimidine-3-carboxamide] | +++ (Cisplatin sensitization value of <0.02 μM) |
| Nc1nn2cc(F)cnc2c1C(=O)Nc1cncc(C2CC2)c1N1CCN([C@@H]2CCOC2)CC1 [I-N-119, (R)-2-amino-N-(5-cyclopropyl-4-(4-(tetrahydrofuran-3-yl)piperazin-1-yl)pyridin-3-yl)-6-fluoropyrazolo[1,5-a]pyrimidine-3-carboxamide] | ++ (Cisplatin sensitization value>0.02 μM but <0.2 μM) |
| Nc1nn2cc(F)cnc2c1C(=O)Nc1cncc(C2CC2)c1N1CCN([C@H]2CCOC2)CC1 [I-N-120, (S)-2-amino-N-(5-cyclopropyl-4-(4-(tetrahydrofuran-3-yl)piperazin-1-yl)pyridin-3-yl)-6-fluoropyrazolo[1,5-a]pyrimidine-3-carboxamide] | +++ (Cisplatin sensitization value of <0.02 μM) |
| Nc1nn2cc(F)cnc2c1C(=O)Nc1cncc(F)c1N1CCN(C2CCOCC2)CC1 [I-N-121, 2-amino-6-fluoro-N-(5-fluoro-4-(4-(tetrahydro-2H-pyran-4-yl)piperazin-1-yl)pyridin-3-yl)pyrazolo[1,5-a]pyrimidine-3-carboxamide] | +++ (Cisplatin sensitization value of <0.02 μM) |
| Nc1nn2cc(F)cnc2c1C(=O)Nc1cncc(F)c1N1CCN(C2CCOC2)CC1 (stereo not drawn) [I-N-122, 2-amino-6-fluoro-N-(5-fluoro-4-(4-(tetrahydrofuran-3-yl)piperazin-1-yl)pyridin-3-yl)pyrazolo[1,5-a]pyrimidine-3-carboxamide] | ++ (Cisplatin sensitization value>0.02 μM but <0.2 μM) |
| Cc1cncc(NC(=O)c2c(N)nn3cc(F)cnc23)c1N1CCN(C2CCOCC2)CC1 [I-N-123, 2-amino-6-fluoro-N-(5-methyl-4-(4-(tetrahydro-2H-pyran-4-yl)piperazin-1-yl)pyridin-3-yl)pyrazolo[1,5-a]pyrimidine-3-carboxamide] | ++ (Cisplatin sensitization value>0.02 μM but <0.2 μM) |
| Nc1nn2cc(F)cnc2c1C(=O)Nc1cncc(Cl)c1N1CCN(C2CCOC2)CC1 (stereo not drawn) [I-N-124, 2-amino-N-(5-chloro-4-(4-(tetrahydrofuran-3-yl)piperazin-1-yl)pyridin-3-yl)-6-fluoropyrazolo[1,5-a]pyrimidine-3-carboxamide] | +++ (Cisplatin sensitization value of <0.02 μM) |
| Nc1nn2cc(F)cnc2c1C(=O)Nc1cncc(F)c1N1CCN([C@H]2CCOC2)CC1 [I-N-125, (S)-2-amino-6-fluoro-N-(5-fluoro-4-(4-(tetrahydrofuran-3-yl)piperazin-1-yl)pyridin-3-yl)pyrazolo[1,5-a]pyrimidine-3-carboxamide] | +++ (Cisplatin sensitization value of <0.02 μM) |
| Nc1nn2cc(F)cnc2c1C(=O)Nc1cncc(Cl)c1N1CCNCC1 [I-N-126, 2-amino-N-(5-chloro-4-(piperazin-1-yl)pyridin-3-yl)-6-fluoropyrazolo[1,5-a]pyrimidine-3-carboxamide] | +++ (Cisplatin sensitization value of <0.02 μM) |
| COCCN1CCN(c2c(F)cncc2NC(=O)c2c(N)nn3cc(F)cnc23)CC1 [I-N-127, 2-amino-6-fluoro-N-(5-fluoro-4-(4-(2-methoxyethyl)piperazin-1-yl)pyridin-3-yl)pyrazolo[1,5-a]pyrimidine-3-carboxamide] | +++ (Cisplatin sensitization value of <0.02 μM) |
| CN1CCC(C(=O)N2CCN(c3c(F)cncc3NC(=O)c3c(N)nn4cc(F)cnc34)CC2)CC1 [I-N-128, 2-amino-6-fluoro-N-(5-fluoro-4-(4-(1-methylpiperidine-4-carbonyl)piperazin-1-yl)pyridin-3-yl)pyrazolo[1,5-a]pyrimidine-3-carboxamide] | +++ (Cisplatin sensitization value of <0.02 μM) |
| Nc1nn2cc(F)cnc2c1C(=O)Nc1cncc(F)c1N1CCN(C(=O)C2CN3CCC2CC3)CC1 (stereo not drawn) [I-N-130, 2-amino-6-fluoro-N-(5-fluoro-4-(4-(quinuclidine-3-carbonyl)piperazin-1-yl)pyridin-3-yl)pyrazolo[1,5-a]pyrimidine-3-carboxamide] | ++ (Cisplatin sensitization value>0.02 μM but <0.2 μM) |
| CN1CC[C@@H](OC2CCN(c3ccncc3NC(=O)c3c(N)nn4cc(F)cnc34)CC2)C1 [I-N-131] | +++ (Cisplatin sensitization value of <0.02 μM) |
| CN1CC[C@@H](OC2CCN(c3c(F)cncc3NC(=O)c3c(N)nn4cc(F)cnc34)CC2)C1 [I-N-132, (R)-2-amino-6-fluoro-N-(5-fluoro-4-(4-((1-methylpyrrolidin-3-yl)oxy)piperidin-1-yl)pyridin-3-yl)pyrazolo[1,5-a]pyrimidine-3-carboxamide] | +++ (Cisplatin sensitization value of <0.02 μM) |
| CN1CCN(c2ccncc2NC(=O)c2c(N)nn3cc(F)cnc23)CC12CCOCC2 [I-N-133, 2-amino-6-fluoro-N-(4-(1-methyl-9-oxa-1,4-diazaspiro[5.5]undecan-4-yl)pyridin-3-yl)pyrazolo[1,5-a]pyrimidine-3-carboxamide] | ++ (Cisplatin sensitization value>0.02 μM but <0.2 μM) |
| Nc1nn2cc(F)cnc2c1C(=O)Nc1cncc(F)c1N1CCN(C(=O)C23CCN(CC2)CC3)CC1 [I-N-134, 2-amino-6-fluoro-N-(5-fluoro-4-(4-(quinuclidine-4-carbonyl)piperazin-1-yl)pyridin-3-yl)pyrazolo[1,5-a]pyrimidine-3-carboxamide] | + (Cisplatin sensitization value>0.2 μM but <5 μM) |
